Drawing on patent publication US6596772B1, “Phosphate mimics and methods of treatment using phosphatase inhibitors” (Sugen, Inc., priority 1999, dated 2003), this text covers IC50 for one molecule.

Experiment in all cases: PTP IC50 assay, pNPP or FDP as substrate
What all share (type): biochemical

The target in assay [1] is T1, PTP MU (Homo sapiens, UniProt P28827).
T1 construct: made in house; host or cells: E. coli BL-21 (pGEX 6P-1)
To be noted: pNPP or FDP as substrate, 25° C.; read-out: PTP IC50 Mu. The procedure: (§1) The following in vitro assay procedure is preferred to determine the level of activity and effect of the different compounds of the present invention on one or more of the PTPs. Similar assays can be designed along the same lines for any PTP using techniques well known in the art.
(§2) The catalytic assays described herein are performed in a 96-well format. The general procedure begins with the determination of PTP optimal pH using a three-component buffer system that minimizes ionic strength variations across a wide range of buffer pH. Next, the Michaelis-Menten constant, or Km, is determined for each specific substrate-PTP system. This Km value is subsequently used as the substrate reaction concentration for compound screening. Finally, the test PTP is exposed to varying concentrations of compound for fifteen minutes and allowed to react with substrate for ten minutes. The results are plotted as percent inhibition versus compound concentration and the IC50 interpolated from the plot.
(§3) All assays were performed using pNPP or FDP as substrate. The optimum pH was determined for each PTP used.
(§4) PTPase activity was assayed at 25° C. in a 100-μl reaction mixture containing an appropriate concentration of pNPP or FDP as substrate. The reaction was initiated by addition of the PTP and quenched after 10 min by addition of 50 μl of IN NaOH. The non-enzymatic hydrolysis of the substrate was corrected by measuring the control without the addition of the enzyme. The amount of p-nitrophenol produced was determined from the absorbance at 410 nm. To determine the kinetic parameter, Km, the initial velocities were measured at various substrate concentrations and the data were fitted to the Michaelis equation where velocity=(Vmax*[S])/(Km+[S]), and [S]=substrate reaction concentration.
(§5) The effect of the compounds on PTP was evaluated at 25° C. using pNPP or FDP as substrate. PTP was pre-incubated for fifteen minutes with various concentrations of compound. Substrate was then added at a fixed concentration (usually equal to the Km previously calculated). After 10 minutes, NaOH was added to stop the reaction. The hydrolysis of pNPP was followed at 410 nm on the Biotek Powerwave 200 microplate scanning spectrophotometer. The percent inhibition was calculated as follows: Percent Inhibition=[(control signal−compound signal)/control signal] ×100%. The IC50 was then determined by interpolation of a percent inhibition versus compound concentration plot.
(§6) Plasmids designed for bacterial GST-PTP fusion protein expression were derived by insertion of PCR-generated human PTP fragments into pGEX vectors (Pharmacia Biotech). Several of these constructs were then used to subclone phosphatases into pFastBac-1for expression in Sf-9 insect cells. Oligonucleotides used for the initial amplification of PTP genes are shown below. The cDNAs were prepared using the Gilbo BRL superscript preamplification system on RNAs purchased from Clontech.
The PTP Mu cDNA was amplified from a human lung cDNA library (Clontech) using the following oligonucleotides; 5′oligo: 5′-[…]-3′ (SEQ ID NO: 18) 3′oligo: 5′-[…]-3′ (SEQ ID NO: 19) It was subsequently ligated into the Eco RI/Xho I sites of pGEX 6P-1.

Assay [2] concerns the target T2, PTP PEST (Homo sapiens, UniProt Q05209).
T2 construct: made in house; host or cells: E. coli BL-21 (pGEX 6P-1)
T2 sequence (Q05209 1-343 limits assumed): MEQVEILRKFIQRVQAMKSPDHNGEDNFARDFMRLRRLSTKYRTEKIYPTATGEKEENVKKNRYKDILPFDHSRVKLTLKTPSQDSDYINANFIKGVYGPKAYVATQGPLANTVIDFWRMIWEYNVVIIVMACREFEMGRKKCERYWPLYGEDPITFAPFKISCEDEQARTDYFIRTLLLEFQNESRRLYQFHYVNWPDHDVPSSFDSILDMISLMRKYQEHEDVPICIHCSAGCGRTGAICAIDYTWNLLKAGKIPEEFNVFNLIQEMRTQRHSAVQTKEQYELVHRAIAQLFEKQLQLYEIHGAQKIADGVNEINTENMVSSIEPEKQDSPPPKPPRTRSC
To be noted: 25° C. The procedure:
as §1, §2, §3, §4, §5, §6
The PTP PEST CDNA was amplified from an HeLa cDNA library (Clonetech RNA) using the following oligonucleotides: 5′oligo: 5′-[…]-3′ (SEQ ID NO: 14) 3′oligo: 5′-[…]-3′ (SEQ ID NO: 15) It was subsequently ligated into the Eco RI/Xho I sites of pGEX 6P-1.

For assay [3], the target named is T3, PTP ZETA (Homo sapiens, UniProt P23471).
T3 construct: made in house; host or cells: E. coli BL-21 (pGEX 6P-1)
T3 sequence (P23471 1667-2028 limits assumed): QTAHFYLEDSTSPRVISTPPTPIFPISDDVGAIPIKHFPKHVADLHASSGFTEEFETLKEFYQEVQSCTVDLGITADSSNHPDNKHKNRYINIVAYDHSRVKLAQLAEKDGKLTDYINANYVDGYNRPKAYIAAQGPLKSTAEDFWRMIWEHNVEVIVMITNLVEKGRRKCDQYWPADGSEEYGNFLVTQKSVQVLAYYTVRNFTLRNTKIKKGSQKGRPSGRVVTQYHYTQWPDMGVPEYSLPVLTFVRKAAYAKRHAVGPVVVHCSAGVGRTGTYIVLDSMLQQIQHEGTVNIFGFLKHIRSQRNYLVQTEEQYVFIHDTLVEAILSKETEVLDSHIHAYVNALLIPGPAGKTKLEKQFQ
To be noted: 25° C. The protocol: as §1, §2, §3, §4, §5, §6
The PTP Zeta cDNA was amplified from human placenta single strand cDNA (Clontech RNA) using the following oligonucleotides 5′oligo: 5′-[…]-3′ (SEQ ID NO: 10) 3′oligo: 5′-[…]-3′ (SEQ ID NO: 11) and subsequently ligated into pGEX 6P-1 Eco RI/Xho I sites.

Assay [4] deals with T4, PTP DEP1 (Homo sapiens, UniProt Q12913).
T4 construct: GST-fusion proteins encompassing the entire cytoplasmic domain was done by PCR; made in house; host or cells: E. coli BL-21 (pGEX 2T)
T4 sequence (Q12913 997-1337 limits assumed): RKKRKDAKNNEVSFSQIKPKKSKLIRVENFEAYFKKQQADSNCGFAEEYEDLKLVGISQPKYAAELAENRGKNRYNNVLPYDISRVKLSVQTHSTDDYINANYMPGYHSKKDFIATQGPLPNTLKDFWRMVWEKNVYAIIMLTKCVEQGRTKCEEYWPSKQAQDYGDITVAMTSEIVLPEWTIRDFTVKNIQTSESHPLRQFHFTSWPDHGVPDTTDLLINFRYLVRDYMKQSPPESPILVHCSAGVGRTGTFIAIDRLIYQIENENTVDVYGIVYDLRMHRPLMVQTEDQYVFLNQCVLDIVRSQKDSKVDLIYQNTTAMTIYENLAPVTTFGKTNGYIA
To be noted: 25° C. The protocol: as §1, §2, §3, §4, §5, §6
The full length DEP1 cDNA was isolated from a human mammary cDNA library (Clontech). The construction of GST-fusion proteins encompassing the entire cytoplasmic domain was done by PCR using the following oligos; 5′oligo: 5′-[…]-3′ (SEQ ID NO: 20) 3′oligo: 5′-[…]-3′ (SEQ ID NO: 21) It was subsequently ligated into the Eco RI/Bam H1 sites of pGEX 2T.

For assay [5], the target named is T5, PTP ALPHA (Homo sapiens, UniProt P18433).
T5 construct: RTPα intracellular domain construct was obtained; made in house; host or cells: E. coli BL-21 (pGEX 3X)
To be noted: 25° C. The protocol: as §1, §2, §3, §4, §5, §6
RTPα intracellular domain construct was obtained, Schlessinger et al., U.S. Pat. No. 5,888,794, the contents of which are hereby incorporated in their entirety into the present application. The RTPα fragment was cloned into pGEX 3× using the following procedure. The portion from EclX I/Xma III/Eag I (N-terminus blunted by Klenow) to Eco RV was cloned into the Sma I site. The EclX I site is approximately 15 residues downstream of the transmembrane domain.

T1 sequence (P28827 831-1186 limits assumed): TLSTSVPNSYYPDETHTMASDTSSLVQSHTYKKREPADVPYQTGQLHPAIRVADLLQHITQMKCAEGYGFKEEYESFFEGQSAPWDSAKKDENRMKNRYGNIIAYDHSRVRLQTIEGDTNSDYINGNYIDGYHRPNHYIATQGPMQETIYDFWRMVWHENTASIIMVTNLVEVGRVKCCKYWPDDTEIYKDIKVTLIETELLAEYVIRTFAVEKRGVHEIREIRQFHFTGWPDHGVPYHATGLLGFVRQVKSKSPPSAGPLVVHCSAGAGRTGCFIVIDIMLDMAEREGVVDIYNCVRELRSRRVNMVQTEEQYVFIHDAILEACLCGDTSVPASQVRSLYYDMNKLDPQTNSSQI

As a reminder, the IC50 is the concentration that inhibits the measured activity by half. For `O=S(=O)(c1ccc(SSc2ccc(S(=O)(=O)C(F)(F)F)cc2)cc1)C(F)(F)F` [Example 7, Bis (4-trifluoromethylsulfonylphenyl) disulfide], the IC50 in assay [1] was greater than 100 µM; in assay [2] it was 22 µM; in assay [3], greater than 100 µM; in assay [4] it was 41 µM; in assay [5], greater than 100 µM.
